# Data from PMC9221546, “New Phenylglycinamide Derivatives with Hybrid Structure as Candidates for New Broad-Spectrum Anticonvulsants” (Cells, 2022).
# pIC50: −log10 of the molar value. Where two headings read alike, the source gives them in different places. Marks after values point to notes of the source that are not given here.
# Tests used:
# [1] = tested on: 6 Hz (44 mA) seizures in mice; details: i.p., pretreatment 0.5 h; cited from earlier work
# mice [2] = details: i.p., acute neurological deficit, cited from earlier work
# [3] = tested on: MES-induced seizures in mice; details: i.p., cited from earlier work
# [4] = tested on: scPTZ-induced seizures in mice; experiment: Subcutaneous pentylenetetrazole (scPTZ) seizure test; type: in vivo; details: 100 mg/kg i.p., 0.5 h
# Method: (§1) Adult male Albino Swiss mice that weighed between 22 and 26 g were used in the in vivo studies. They were housed under standardized housing conditions in colony cages and had free access to food as well as tap water. The animals were left to adapt under laboratory conditions for 7 days. All procedures involving animals and their care were performed in accordance with the current European Community and Polish legislation on animal experimentation.
# (§2) In the initial screening studies, four mice per group were randomly assigned to each experimental group (each mouse was used only once). To evaluate the ED50 or TD50 values, 3–4 groups that consisted of eight animals were injected with various doses of tested compounds. The protective indexes (PIs) for the compounds that were investigated and reference ASDs were calculated by dividing the TD50 value, as determined in the chimney test (or rotarod test), by the respective ED50 value, as determined in the MES, scPTZ, or 6 Hz (32 mA or 44 mA) tests (PI = TD50/ED50). The PIs is a measure of the potential therapeutic window of the tested agent.
# (§3) All substances were suspended in Tween 80 (1% aqueous solution) and administered i.p. as a single injection at a dose of 10 mL/kg. On each day of experimentation, fresh solutions were prepared. The results are summarized in Table S1 (screening data) and Table 2 (ED50, TD50, and PI values, see Section 3 Results and Discussion).
# (§4) The detailed in vivo procedures are described elsewhere: the maximal electroshock seizure test (MES), the subcutaneous pentylenetetrazole seizure test (scPTZ), the 6 Hz psychomotor seizure model (32 mA and 44 mA), and the chimney test.
# (§5) The basic animal seizure models such as the MES, 6 Hz (32 mA or 44 mA), and the scPTZ are still a standard in the discovery and development of new ASDs. In vivo screening approaches enable the identification of compounds with unidentified and potentially novel mechanisms of action besides substances with well-established pharmacodynamics. Bearing in mind the aforementioned facts, compounds 45–66 were initially studied in the MES test and in the 6 Hz seizure model (32 mA) after intraperitoneal (i.p.) administration at a screening dose of 100 mg/kg in mice at a time point of 0.5 h (the screening group consisted of four mice, the results obtained are summarized in Table S1). It should be stressed that the MES test is an experimental model of human tonic–clonic epilepsy as well as partial convulsions with or without secondary generalization, the 6 Hz model (32 mA) corresponds to human focal epilepsy, whereas the scPTZ test relates to human generalized absence or myoclonic seizures.
# TRPV1 (VR1) (h) [5] = target: T1, TRPV1 (VR1) (h) (Homo sapiens, UniProt Q8NER1); experiment: TRPV1 (VR1) (h) antagonist effect functional assay; type: cell-based; details: human recombinant CHO cells
# T1 construct: host or cells: CHO
# recombinant human CYP2C9 = target: T2, recombinant human CYP2C9 (Homo sapiens, UniProt P11712); experiment: CYP2C9 P450-Glo luminescent assay; type: in vitro ADME
# T2 construct: purchased Promega (Madison, WI, USA)
# Method: The risk of potential DDIs was predicted with use of luminescent CYP3A4, 2D6, and 2C9 P450-Glo assays (Figure 6). […] However, such an effect was also observed in our previous studies for other pyrrolidine-2,5-dione derivatives. […] However, the potential risk of DDI of 60 was still assessed as very low, and was compared to the selective CYP2C9 inhibitor sulfaphenazole (Figure 6C).
# The data were analyzed with one-way ANOVA, followed by Bonferroni’s Multiple Comparison Post Test (Graph Pad Prism 8.0.1 software, San Diego, CA, USA)): * p < 0.05, ** p < 0.01, *** p < 0.001 **** p < 0.0001. The compounds were examined in triplicate.
# [6] = tested on: 6 Hz (32 mA) seizures in mice; experiment: 6 Hz (32 mA) psychomotor seizure model; type: in vivo
# Method: as §1, §2, §3, §4, §5
# (§6) We also established the median toxic doses (TD50) in the chimney test 0.5 h post i.p. administration of these compounds. Both the aforementioned parameters enabled the calculation of the protective indexes (PIs).
# [7] = target: T3, Calcium Cav1.2 channels (dihydropyridine site) (Homo sapiens, UniProt Q13936); experiment: Calcium Cav1.2 channel binding (dihydropyridine site, antagonist radioligand); details: human recombinant HEK-293 cell, read-out: % Inhibition of Control Specific Binding, Cav1.2 (dihydropyridine site)
# T3 construct: host or cells: HEK-293
# TRPV1 (VR1) (h) [8] = target: T1, TRPV1 (VR1) (h); experiment: TRPV1 (VR1) (h) antagonist effect functional assay; type: cell-based; details: human recombinant CHO cells, read-out: % Inhibition of control agonist response, TRPV1 (antagonist effect)
# Method: (§7) Binding/functional studies were carried out commercially in Eurofins Laboratories (Poitiers, France) and Eurofins Panlabs Discovery Services Taiwan, Ltd. (New Taipei City, Taiwan) using testing procedures that were reported previously (for details see Table S2).
# (§8) Table S2. Radioligand binding and functional assays. […]
# Assays were performed commercially in Eurofins Laboratories (Poitiers, France) or Eurofins Panlabs Discovery Services Taiwan, Ltd. (New Taipei City, Taiwan).
# Table S3. In vitro TRPV1 channel antagonist activity for compounds 45–66 (concentration of 100 µM). […]
# Cmpd % Inhibition of control Cmpd % Inhibition of control agonist responsea agonist responsea
# *Source: human recombinant CHO cells. a Results showing activity higher than 50% are considered to represent […]
# variability of the sign al around the control level. Assays were performed commercially in Eurofins Laboratories
# [9] = Metabolic stability in human liver microsomes (HLMs)
# hepatoma HepG2 cell line = experiment: Hepatotoxicity, HepG2 viability (MTS); type: cell-based; details: 72 h treatment
# Method: Figure 7 The effect of 53, 60, and 62, cytostatic drug doxorubicin (DX) and the mitochondrial toxin CCCP on the hepatoma HepG2 cell line viability after 72 h of incubation at 37 °C, 5% CO2. The data were analyzed with one-way ANOVA, followed by Bonferroni’s Comparison Test (Graph Pad Prism 8.0.1 software, San Diego, CA, USA)): ** p < 0.01, **** p < 0.0001 vs. negative control (DMSO 1% in growth media).
# [10] = tested on: MES-induced seizures in mice; experiment: Maximal electroshock seizure (MES) test; type: in vivo; details: for protection in MES screening / responders at 100 mg/kg: 100 mg/kg i.p., 0.5 h; for protection in MES screening: four mice; for responders at 100 mg/kg: read-out: MES screening: number of mice protected/number of mice tested (converted)
# Method: as §1, §2, §3, §4, §5, §6
# Na+ channel (site 2) = Na+ channel (site 2) radioligand binding; details: rat cerebral cortex
# [11] = target: T4, Cav1.2 (h) calcium ion channel (Homo sapiens, UniProt Q13936); experiment: Cav1.2 (h) calcium ion channel cell-based antagonist calcium flux assay; details: HEK293, human recombinant HEK-293 cell, read-out: % Inhibition of control agonist response, Cav1.2 calcium flux
# T4 construct: Eurofins
# Method: as §7, §8
# TRPV1 (VR1) (h) (antagonist effect)
# Cav1.2 (L-type) (h) calcium ion channel cell-based antagonist calcium flux assay
# Assays were performed commercially in Eurofins Laboratories (Poitiers, France) or Eurofins Panlabs Discovery
# Services Taiwan, Ltd. (New Taipei City, Taiwan). […]
# [12] = tested on: 6 Hz (32 mA) seizures in mice; details: i.p., pretreatment 0.5 h (LEV 1.0 h); cited from earlier work
# mice [13] = experiment: Capsaicin-induced hypothermia model / core body temperature; type: in vivo; details: compound 60 50 mg/kg, BCTC 20 mg/kg
# Method: Capsaicin was dissolved in 1% DMSO and administered at a dose of 5 mg/kg at a time point 0 min. Compound 60 and BCTC (positive control) were suspended in 1% Tween 80 and administered 15 min before capsaicin (at time point -15 min). All compounds were injected i.p. at a constant volume of 10 mL/kg. Control animals received the respective vehicles (1% DMSO or 1% Tween 80). Changes in the rectal temperature were measured using an electronic thermometer (ThermoWorks, Alpine, UT, USA) by inserting the rectal probe to a depth of ~2 cm into the rectum of the mouse. The measurements were taken at −15, 0, 15, 30, 60, 90, 120, and 180 min. The differences in the rectal temperature from baseline (time -15 min for groups receiving compound 60 and BCTC in combination with vehicle or time 0 min for groups receiving vehicle and capsaicin or compound 60 and BCTC in combination with capsaicin) to the respective time point ΔT (°C) were then calculated and analyzed. The results are shown in Figure 4 (see Section 3 Results and Discussion).
# Figure 4 Effects of compound 60 and BCTC alone (A) or in combination with capsaicin (B) on the core body temperature in mice. Capsaicin (CPS) was injected at 0 min, as indicated by the arrow. Compound 60 or BCTC were administered 15 min prior to CPS injection. The temperature was measured at −15, 0, 15, 30, 60, 90, 120, and 180 min. Since body temperature returned to control values 60 min after CPS injection, subsequent measurements are not shown. Control animals received vehicles (1% DMSO or 1% Tween 80). All the compounds were administered i.p. Each experimental group consisted of seven to eight animals. The data are presented as the mean differences (ΔT) in rectal temperature from baseline (time −15 for A and time 0 for B) to the respective time point. The data were analyzed with one-way ANOVA followed by Tukey’s post hoc test. ** p < 0.01, *** p < 0.001, **** p < 0.0001 vs. the control group; ^#### p < 0.0001 vs. the CPS-treated group.
# [14] = Mus musculus, ip, 100 mg/kg i.p., 0.5 h, read-out: 6 Hz (32 mA) screening: number of mice protected/number of mice tested (converted)
# [15] = Mus musculus, ip, mice, pretreatment time 0.5 h, (95% confidence limits)
# T1 sequence (Q8NER1 whole entry): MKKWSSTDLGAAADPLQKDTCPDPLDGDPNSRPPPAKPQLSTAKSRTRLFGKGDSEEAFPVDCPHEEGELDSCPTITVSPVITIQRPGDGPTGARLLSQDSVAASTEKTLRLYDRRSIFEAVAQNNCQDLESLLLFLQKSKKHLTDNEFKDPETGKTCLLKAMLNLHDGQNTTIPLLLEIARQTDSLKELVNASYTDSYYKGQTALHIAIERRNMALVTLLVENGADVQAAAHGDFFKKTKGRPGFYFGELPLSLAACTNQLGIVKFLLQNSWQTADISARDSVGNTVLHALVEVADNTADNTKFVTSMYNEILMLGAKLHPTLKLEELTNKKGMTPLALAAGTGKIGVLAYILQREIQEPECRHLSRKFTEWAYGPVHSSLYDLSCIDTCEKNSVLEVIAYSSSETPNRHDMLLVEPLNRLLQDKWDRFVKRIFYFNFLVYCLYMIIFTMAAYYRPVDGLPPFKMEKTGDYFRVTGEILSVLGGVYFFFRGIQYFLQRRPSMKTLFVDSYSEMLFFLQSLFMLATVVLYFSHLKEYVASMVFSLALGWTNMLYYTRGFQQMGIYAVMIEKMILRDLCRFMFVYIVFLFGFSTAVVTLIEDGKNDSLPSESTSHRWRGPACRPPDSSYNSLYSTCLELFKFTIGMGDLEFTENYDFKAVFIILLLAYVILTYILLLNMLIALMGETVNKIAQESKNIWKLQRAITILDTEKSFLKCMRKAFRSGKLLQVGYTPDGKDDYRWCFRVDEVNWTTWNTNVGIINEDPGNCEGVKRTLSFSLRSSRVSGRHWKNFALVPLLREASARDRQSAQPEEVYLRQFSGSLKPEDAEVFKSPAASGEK
# T3 sequence (Q13936 whole entry): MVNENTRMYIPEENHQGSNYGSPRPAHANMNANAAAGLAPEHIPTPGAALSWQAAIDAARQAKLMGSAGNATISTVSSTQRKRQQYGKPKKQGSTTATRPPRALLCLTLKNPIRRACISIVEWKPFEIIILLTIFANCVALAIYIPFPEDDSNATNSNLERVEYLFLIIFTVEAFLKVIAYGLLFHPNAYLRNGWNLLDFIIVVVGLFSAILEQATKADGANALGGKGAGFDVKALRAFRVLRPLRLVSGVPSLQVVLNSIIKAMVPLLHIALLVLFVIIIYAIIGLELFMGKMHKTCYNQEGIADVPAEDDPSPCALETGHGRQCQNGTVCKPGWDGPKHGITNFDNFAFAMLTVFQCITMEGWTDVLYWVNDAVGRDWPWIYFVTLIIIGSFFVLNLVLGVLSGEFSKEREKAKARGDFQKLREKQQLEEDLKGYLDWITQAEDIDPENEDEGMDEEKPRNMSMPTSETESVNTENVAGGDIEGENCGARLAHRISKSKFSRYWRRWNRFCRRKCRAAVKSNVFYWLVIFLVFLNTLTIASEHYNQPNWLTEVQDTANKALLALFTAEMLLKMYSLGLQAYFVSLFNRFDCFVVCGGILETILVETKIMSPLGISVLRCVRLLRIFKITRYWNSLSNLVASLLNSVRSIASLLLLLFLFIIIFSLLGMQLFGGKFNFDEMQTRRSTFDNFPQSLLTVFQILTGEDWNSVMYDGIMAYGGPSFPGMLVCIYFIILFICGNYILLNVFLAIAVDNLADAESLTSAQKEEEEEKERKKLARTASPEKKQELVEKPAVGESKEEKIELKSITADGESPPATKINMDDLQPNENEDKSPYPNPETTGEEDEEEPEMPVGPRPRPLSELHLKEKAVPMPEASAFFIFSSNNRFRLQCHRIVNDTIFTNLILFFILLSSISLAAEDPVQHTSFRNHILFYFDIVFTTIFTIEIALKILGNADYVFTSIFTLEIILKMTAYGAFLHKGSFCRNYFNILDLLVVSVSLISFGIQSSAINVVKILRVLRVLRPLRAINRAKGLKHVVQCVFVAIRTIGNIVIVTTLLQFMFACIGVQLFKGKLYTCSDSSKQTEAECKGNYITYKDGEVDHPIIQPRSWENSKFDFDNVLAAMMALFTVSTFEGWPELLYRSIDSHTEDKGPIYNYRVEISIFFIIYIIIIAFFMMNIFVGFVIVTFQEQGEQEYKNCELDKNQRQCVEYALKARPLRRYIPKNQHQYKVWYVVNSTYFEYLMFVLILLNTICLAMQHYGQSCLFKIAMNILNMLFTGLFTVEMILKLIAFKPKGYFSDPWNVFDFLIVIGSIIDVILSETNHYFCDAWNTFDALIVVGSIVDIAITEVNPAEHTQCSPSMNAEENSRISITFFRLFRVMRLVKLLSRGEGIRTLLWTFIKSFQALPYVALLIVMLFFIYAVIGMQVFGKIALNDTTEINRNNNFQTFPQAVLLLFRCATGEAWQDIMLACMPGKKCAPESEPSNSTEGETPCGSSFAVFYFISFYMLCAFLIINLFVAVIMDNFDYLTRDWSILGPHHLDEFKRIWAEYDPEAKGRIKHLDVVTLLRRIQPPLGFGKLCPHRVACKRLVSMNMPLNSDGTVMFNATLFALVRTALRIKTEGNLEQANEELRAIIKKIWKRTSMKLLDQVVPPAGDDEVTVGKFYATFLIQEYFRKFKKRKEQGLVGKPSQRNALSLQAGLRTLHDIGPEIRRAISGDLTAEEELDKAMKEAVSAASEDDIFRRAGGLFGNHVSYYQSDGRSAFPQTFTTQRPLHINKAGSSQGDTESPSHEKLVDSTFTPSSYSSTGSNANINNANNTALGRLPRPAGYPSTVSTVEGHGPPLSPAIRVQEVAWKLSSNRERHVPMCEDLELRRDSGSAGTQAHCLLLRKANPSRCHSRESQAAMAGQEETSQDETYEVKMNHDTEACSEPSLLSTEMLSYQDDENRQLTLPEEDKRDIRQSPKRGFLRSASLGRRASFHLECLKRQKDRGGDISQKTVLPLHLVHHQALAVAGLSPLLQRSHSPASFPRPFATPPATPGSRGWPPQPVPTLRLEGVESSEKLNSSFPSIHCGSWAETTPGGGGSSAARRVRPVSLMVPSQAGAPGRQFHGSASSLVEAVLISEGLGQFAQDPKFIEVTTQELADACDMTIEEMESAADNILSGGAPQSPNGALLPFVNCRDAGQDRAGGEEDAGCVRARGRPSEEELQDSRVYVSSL
# T3 sequence (Q08289 whole entry partner): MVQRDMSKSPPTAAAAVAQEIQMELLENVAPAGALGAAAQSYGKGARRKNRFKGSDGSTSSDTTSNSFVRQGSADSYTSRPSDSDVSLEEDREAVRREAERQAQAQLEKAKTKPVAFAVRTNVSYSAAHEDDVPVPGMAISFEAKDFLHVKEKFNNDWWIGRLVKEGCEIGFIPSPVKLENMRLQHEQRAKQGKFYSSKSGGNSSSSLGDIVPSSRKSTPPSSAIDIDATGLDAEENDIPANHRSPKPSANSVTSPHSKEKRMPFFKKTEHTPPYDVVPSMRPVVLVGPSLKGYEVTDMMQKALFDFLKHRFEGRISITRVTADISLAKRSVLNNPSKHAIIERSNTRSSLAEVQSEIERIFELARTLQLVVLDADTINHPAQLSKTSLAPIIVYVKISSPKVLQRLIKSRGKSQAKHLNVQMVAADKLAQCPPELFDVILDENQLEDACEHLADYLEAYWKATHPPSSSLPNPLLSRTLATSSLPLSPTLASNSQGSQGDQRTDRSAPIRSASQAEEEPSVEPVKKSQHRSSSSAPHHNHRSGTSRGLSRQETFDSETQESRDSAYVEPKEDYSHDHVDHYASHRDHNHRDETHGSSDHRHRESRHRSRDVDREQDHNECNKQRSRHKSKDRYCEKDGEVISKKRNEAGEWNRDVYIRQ
# T3 sequence (P54289 25-956 partner limits assumed): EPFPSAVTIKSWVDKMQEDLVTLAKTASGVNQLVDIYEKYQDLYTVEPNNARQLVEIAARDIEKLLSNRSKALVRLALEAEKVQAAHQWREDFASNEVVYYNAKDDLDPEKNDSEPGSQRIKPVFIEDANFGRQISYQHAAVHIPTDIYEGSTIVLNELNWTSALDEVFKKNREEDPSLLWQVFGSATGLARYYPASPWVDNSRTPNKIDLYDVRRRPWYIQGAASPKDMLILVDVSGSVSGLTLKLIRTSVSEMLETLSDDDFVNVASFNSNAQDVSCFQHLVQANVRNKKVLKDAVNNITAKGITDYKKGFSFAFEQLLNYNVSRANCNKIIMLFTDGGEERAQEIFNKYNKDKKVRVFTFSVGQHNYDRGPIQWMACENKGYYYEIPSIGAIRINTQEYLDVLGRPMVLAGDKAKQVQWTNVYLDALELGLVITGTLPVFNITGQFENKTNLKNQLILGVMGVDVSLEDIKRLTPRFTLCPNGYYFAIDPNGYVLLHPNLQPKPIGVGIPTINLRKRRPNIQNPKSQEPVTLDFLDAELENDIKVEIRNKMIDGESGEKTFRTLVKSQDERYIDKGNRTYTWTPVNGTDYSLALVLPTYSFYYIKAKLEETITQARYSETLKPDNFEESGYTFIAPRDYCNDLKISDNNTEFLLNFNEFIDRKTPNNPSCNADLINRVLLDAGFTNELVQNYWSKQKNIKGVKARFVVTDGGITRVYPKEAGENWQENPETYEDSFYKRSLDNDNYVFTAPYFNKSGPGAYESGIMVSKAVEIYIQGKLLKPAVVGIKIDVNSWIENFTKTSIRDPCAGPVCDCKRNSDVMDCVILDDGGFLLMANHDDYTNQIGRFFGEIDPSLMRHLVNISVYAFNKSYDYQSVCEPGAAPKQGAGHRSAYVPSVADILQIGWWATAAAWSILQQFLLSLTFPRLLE
# T3 sequence (P54289 957-1103 partner limits assumed): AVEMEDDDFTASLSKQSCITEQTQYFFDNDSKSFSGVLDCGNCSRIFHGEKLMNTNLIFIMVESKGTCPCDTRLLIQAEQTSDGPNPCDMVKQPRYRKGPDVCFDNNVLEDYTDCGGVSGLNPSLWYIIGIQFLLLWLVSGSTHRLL
compound,measurement,setting,value
"CC[C@@H](C(N)=O)N1CCCC1=O [LEV, Levetiracetam]",ED50 6 Hz (44 mA),[1],204.0 (154.5–269.5) mg/kg
same,TD50 (rotarod test),mice [2]; ref 32,>500 ** mg/kg
same,TD50 (rotarod test),mice [2]; ref 34,>500 ** mg/kg
same,ED50 MES,[3]; pretreatment 0.5 h (LEV 1.0 h),>500 mg/kg
"CC(=O)NC(C(=O)N1CCN(c2cccc(SC(F)(F)F)c2)CC1)c1ccccc1 (stereo not shown) [Compound 62, N-(2-oxo-1-phenyl-2-(4-(3-((trifluoromethyl)thio)phenyl)piperazin-1-yl)ethyl)acet--amide]",scPTZ screening: number of mice protected/number of mice tested,[4],0/4
same,pIC50,TRPV1 (VR1) (h) [5],5.00
same,Kb,TRPV1 (VR1) (h) [5],1.4 µM
same,influence on CYP2C9 activity,recombinant human CYP2C9,weak inhibition effect
same,responders at 100 mg/kg,"[6]; Mus musculus, ip, 100 mg/kg i.p., 0.5 h, four mice, read-out: protection in 6 Hz (32 mA) screening",100%
same,responders at 100 mg/kg,[6]; [14],100%
same,ED50,[6]; [15],33.2 mg/kg
same,inhibition at 10 µM,[7]; 10 µM,12%
same,inhibition at 100 µM,TRPV1 (VR1) (h) [8],135%
same,remaining at 2 h,"[9]; human, human liver microsomes",84%
same,Metabolic Pathway,[9]; metabolites after 120 min incubation with HLMs,hydroxylation
same,effect on HepG2 cell viability (hepatotoxicity),hepatoma HepG2 cell line,highest hepatotoxic risk
same,protection in MES screening,[10],75%
same,responders at 100 mg/kg,"[10]; Mus musculus, ip",75%
same,ED50,[10]; [15],76.1 mg/kg
same,"% Inhibition of Control Specific Binding, Na+ channel (site 2)",Na+ channel (site 2); 10 µM,57.0 (10) %
same,inhibition at 10 µM,[11],65%
"COC[C@@H](NC(C)=O)C(=O)NCc1ccccc1 [LCS, Lacosamide]",ED50 6 Hz (44 mA),[1],6.9 (5.4–8.6) mg/kg
same,ED50 MES,[3]; pretreatment 0.5 h (LEV 1.0 h),9.2 (8.5−10.0) mg/kg
same,ED50 6 Hz (32 mA),[12],5.3 (3.5−7.8) mg/kg
O=C(C(c1ccccc1)N1C(=O)CCC1=O)N1CCN(c2cccc(C(F)(F)F)c2)CC1 (stereo not shown) [KA-104],ED50 6 Hz (44 mA),[1],73.2 (57.4–93.4) mg/kg
same,ED50 MES,[3]; pretreatment 0.5 h (LEV 1.0 h),23.7 (18.4−31.2) mg/kg
same,ED50 6 Hz (32 mA),[12],22.4 (17.4−28.8) mg/kg
"C=C(C)[C@@H]1CCC(C)=C[C@H]1c1c(O)cc(CCCCC)cc1O [CBD, cannabidiol, reference compound]",ED50 MES,[3]; pretreatment 1.0 h,80.0 (65.5−96.0) mg/kg
same,inhibition at 100 µM,[7]; 100 µM,58%
same,inhibition at 100 µM,TRPV1 (VR1) (h) [8],48%
same,"% Inhibition of Control Specific Binding, Na+ channel (site 2)",Na+ channel (site 2); 100 µM,94.8 (100) %
"CC(C)(C)c1ccc(NC(=O)N2CCN(c3ncccc3Cl)CC2)cc1 [BCTC, N-(4-Tertiarybutylphenyl)-4-(3-Chloropyridin-2-Yl)Tetrahydropyrazine-1(2H)-Carbox-Amide, reference compound]",scPTZ screening: number of mice protected/number of mice tested,[4],0/4
same,protection in scPTZ screening,[4]; four mice,ineffective
same,effect on capsaicin-induced hypothermia (co-administration),mice [13]; i.p. 15 min before capsaicin 5 mg/kg,prevented the capsaicin-evoked decrease in body temperature
same,protection in 6 Hz (32 mA) screening,"[6]; 100 mg/kg i.p., 0.5 h, four mice",ineffective
same,responders at 100 mg/kg,[6]; [14],0%
same,protection in MES screening,[10],ineffective
same,responders at 100 mg/kg,"[10]; Mus musculus, ip",0%
"CCCC(CCC)C(=O)O [VPA, Valproic acid]",ED50 6 Hz (32 mA),[12],130.6 (117.6−145.2) mg/kg
COc1cc(CNC(=O)CCCC/C=C/C(C)C)ccc1O [capsaicin],"effect on rectal (core body) temperature, given alone","mice [13]; i.p., capsaicin 5 mg/kg",produced a significant drop in the rectal temperature
